From patent US20130090364A1, “ANALOGUES FOR THE TREATMENT OR PREVENTION OF FLAVIVIRUS INFECTIONS” (priority 2010, published 2013) come the findings set out here.

The subject of one assay is HCV (1b) RNA replication (replicon I389Luc-ubi-neo/NS3-3′/5.1). Description: Cell-based luciferase reporter HCV (1b) RNA replication assay, Huh-ET cells. The settings on record: Hepatitis C virus; Table 2A; HCV genotype 1b replicon. The source says:
Cell-Based Luciferase Reporter HCV (Ib) RNA Replication Assay Cell Culture
Replicon cell lines Huh-5.2 are derived from the Huh-7 hepatocarcinoma cell line are maintained in culture as generally described in Krieger, N; Lohmann, V; Bartenschlager, R. Enhancement of hepatitis C virus RNA replication by cell culture-adaptive mutations. J. Virol. 2001, 75, 4614-4624. The Huh-5.2 cells contain the highly cell culture-adapted replicon I389Luc-ubi-neo/NS3-3′/5.1 construct that carries, in addition to the neomycin gene, an integrated copy to the firefly luciferase gene (Krieger, N; Lohmann, V; Bartenschlager, R. Enhancement of hepatitis C virus RNA replication by cell culture-adaptive mutations. J. Virol. 2001, 75, 4614-4624). This cell line allows measurement of HCV RNA replication and translation by measuring luciferase activity. It has been previously shown that the luciferase activity tightly follows the replicon RNA level in these cells (Krieger, N; Lohmann, V; Bartenschlager, R. Enhancement of hepatitis C virus RNA replication by cell culture-adaptive mutations. J. Virol. 2001, 75, 4614-4624). The Huh-ET cell line has the same features as those mentioned for Huh-5.2 cell line, except that ET cells are more robust and contain an adaptative mutation in the HCV NS4B gene instead of NSSA. Both cell lines are maintained in cultures at a sub-confluent level (<85%) as the level of replicon RNA is highest in actively proliferating cells. The culture media used for cell passaging consist of DMEM (Gibco BRL Laboratories, Mississauga, ON, Canada) supplemented with 10% foetal bovine serum with 1% penicilin/streptomycin, 1% glutamine, 1% sodium pyruvate, 1% non-essential amino acids, and 180 μg/ml of G418 final concentration. Cells are incubated at 37° C., in an atmosphere of 5% CO2 and passaged twice a week to maintain sub-confluence.
Approximately 3000 viable Huh-ET cells (100 μl) are plated per well in a white opaque 96-well microtiter plate. The cell culture media used for the assay is the same as described above except that it contains no G418 and no phenol red. After an incubation period of 3-4 hours at 37° C. in a 5% CO2 incubator, compounds (100 μl) are added at various concentrations. Cells are then further incubated for 4 days at 37° C. in a 5% CO2 incubator. Thereafter, the culture media is removed and cells are lysed by the addition of 95 μL of the luciferase buffer (luciferin substrate in buffered detergent). Cell lysates are incubated at room temperature and protected from direct light for at least 10 minutes. Plates are read for luciferase counts using a luminometer (Wallac MicroBeta Trilux, Perkin Elmer™, MA, USA).
Curves are fitted to data points using nonlinear regression analysis, and IC50s are interpolated from the resulting curve using GraphPad Prism software, version 2.0 (GraphPad Software Inc., San Diego, Calif., USA).
In general terms: Reporter assays use an easily measured gene product as a stand-in for the process of interest.
Usually EC50 stands for the concentration at which the effect is half-maximal. Regarding `COC(=O)N[C@H](C(=O)N1C[C@@H](C)C[C@H]1c1nc2sc(-c3ccc(-c4ccc5nc([C@@H]6C[C@H](C)CN6C(=O)[C@@H](NC(=O)OC)C(C)C)n(C)c5c4)cc3)cc2[nH]1)C(C)C` [Compound 9], the half-maximal effective concentration (EC50) was not above 5 nM.
Compound `COC(=O)N[C@H](C(=O)N1C[C@@H](C)C[C@H]1c1cc2ccc(-c3ccc(-c4cc5[nH]c([C@@H]6C[C@H](C)CN6C(=O)[C@@H](NC(=O)OC)C(C)C)nc5s4)cc3)cc2[nH]1)C(C)C` [Compound 10] had an EC50 not above 5 nM.
Compound `COC(=O)N[C@H](C(=O)N1C[C@@H](C)C[C@H]1c1ncc(-c2ccc(-c3ccc(-c4cc5[nH]c([C@@H]6C[C@H](C)CN6C(=O)[C@@H](NC(=O)OC)C(C)C)nc5s4)cc3)cc2)[nH]1)C(C)C` [Compound 11] came in with a concentration giving a half-maximal response (EC50) not above 5 nM.
For the compound `COC(=O)N[C@H](C(=O)N1C[C@@H](C)C[C@H]1c1ncc(C#Cc2ccc(-c3cc4[nH]c([C@@H]5C[C@H](C)CN5C(=O)[C@@H](NC(=O)OC)C(C)C)nc4s3)cc2)[nH]1)C(C)C` [Compound 12], the EC50 was not above 5 nM.
As for `COC(=O)N[C@H](C(=O)N1C[C@@H](C)C[C@H]1c1nc2cc(-c3ccc(-c4cc5[nH]c([C@@H]6C[C@H](C)CN6C(=O)[C@@H](NC(=O)OC)C(C)C)nc5s4)cc3)ccc2[nH]1)C(C)C` [Compound 13], the EC50 was not above 5 nM.
Same read-out and setting: the figure for `COC(=O)N[C@H](C(=O)N1C[C@@H](C)C[C@H]1c1nc2cc(C#Cc3ccc(-c4cc5[nH]c([C@@H]6C[C@H](C)CN6C(=O)[C@@H](NC(=O)OC)C(C)C)nc5s4)cc3)ccc2[nH]1)C(C)C` [Compound 14] is not above 5 nM; for `COC(=O)N[C@H](C(=O)N1C[C@@H](C)C[C@H]1c1ncc(C#Cc2ccc(-c3ccc(-c4cc5[nH]c([C@@H]6C[C@H](C)CN6C(=O)[C@@H](NC(=O)OC)C(C)C)nc5s4)cc3)cc2)[nH]1)C(C)C` [Compound 15] it is not above 5 nM; for `COC(=O)N[C@H](C(=O)N1C[C@@H](C)C[C@H]1c1nc(-c2cc3sccc3s2)c(-c2ccc(-c3cc4nc([C@@H]5C[C@H](C)CN5C(=O)[C@@H](NC(=O)OC)C(C)C)[nH]c4s3)cc2)[nH]1)C(C)C` [Compound 16] it is not above 5 nM.
For the compound `COC(=O)N[C@H](C(=O)N1C[C@@H](C)C[C@H]1c1nc2cc(/C=C/c3ccc(-c4cc5[nH]c([C@@H]6C[C@H](C)CN6C(=O)[C@@H](NC(=O)OC)C(C)C)nc5s4)cc3)ccc2[nH]1)C(C)C` [Compound 17], the 50% effective concentration (EC50) was not above 5 nM.
On the same count and under the same terms, the figure for `C[C@H]1C[C@@H](c2nc3cc(-c4ccc(-c5ccc(-c6cc7[nH]c([C@@H]8C[C@H](C)CN8C(=O)OC(C)(C)C)nc7s6)cc5)s4)ccc3[nH]2)N(C(=O)OC(C)(C)C)C1` [Compound 18] is 5 to 5000 nM.
On the same count and under the same terms, the same measure for `COC(=O)N[C@H](C(=O)N1C[C@@H](C)C[C@H]1c1nc(-c2cccc(-c3ccc(-c4cc5nc([C@@H]6C[C@H](C)CN6C(=O)[C@@H](NC(=O)OC)C(C)C)[nH]c5s4)cc3)c2)c[nH]1)C(C)C` [Compound 20]: not above 5 nM; for `COC(=O)N[C@H](C(=O)N1C[C@@H](C)C[C@H]1c1ncc(C#Cc2ccc(-c3ccc(-c4cc5[nH]c([C@@H]6C[C@H](C)CN6C(=O)[C@@H](NC(=O)OC)C(C)C)nc5s4)s3)cc2)[nH]1)C(C)C` [Compound 21]: not above 5 nM; for `COC(=O)N[C@H](C(=O)N1C[C@@H](C)C[C@H]1c1ncc(-c2ccc(-c3ccc(-c4cc5[nH]c([C@@H]6C[C@H](C)CN6C(=O)[C@@H](NC(=O)OC)C(C)C)nc5s4)s3)cc2)[nH]1)C(C)C` [Compound 22]: not above 5 nM.
`COC(=O)N[C@H](C(=O)N1C[C@@H](C)C[C@H]1c1nc(-c2csc3ccc(-c4ccc(-c5cc6nc([C@@H]7C[C@H](C)CN7C(=O)[C@@H](NC(=O)OC)C(C)C)[nH]c6s5)cc4)cc23)c[nH]1)C(C)C` [Compound 23] gave a concentration for a half-maximal effect (EC50) of 5 to 5000 nM.
The same measure, in the same setting: the figure for `COC(=O)N[C@H](C(=O)N1C[C@@H](C)C[C@H]1c1nc2cc(-c3ccc(-c4ccc(-c5cc6nc([C@@H]7C[C@H](C)CN7C(=O)[C@@H](NC(=O)OC)C(C)C)[nH]c6s5)cc4)cc3)sc2[nH]1)C(C)C` [Compound 24] is not above 5 nM; for `COC(=O)N[C@H](C(=O)N1C[C@@H](C)C[C@H]1c1ncc(-c2ccc(-c3ccc(-c4cc5[nH]c([C@@H]6C[C@H](C)CN6C(=O)[C@@H](NC(=O)OC)C(C)C)nc5s4)cc3)s2)[nH]1)C(C)C` [Compound 25] it is not above 5 nM; for `COC(=O)N[C@H](C(=O)N1C[C@@H](C)C[C@H]1c1ncc(-c2ccc(-c3cc4sc(-c5cc6[nH]c([C@@H]7C[C@H](C)CN7C(=O)[C@@H](NC(=O)OC)C(C)C)nc6s5)cc4s3)cc2)[nH]1)C(C)C` [Compound 26] it is not above 5 nM.
Still for that read-out and setting: the figure for `COC(=O)N[C@H](C(=O)N1C[C@@H](C)C[C@H]1c1nc2cc(-c3cc4sc(-c5cc6[nH]c([C@@H]7C[C@H](C)CN7C(=O)[C@@H](NC(=O)OC)C(C)C)nc6s5)cc4s3)ccc2[nH]1)C(C)C` [Compound 27] is not above 5 nM.
In turn, `COC(=O)N[C@H](C(=O)N1C[C@@H](C)C[C@H]1c1nc(C)c(-c2ccc(-c3ccc(-c4cc5nc([C@@H]6C[C@H](C)CN6C(=O)[C@@H](NC(=O)OC)C(C)C)[nH]c5s4)cc3)cc2)[nH]1)C(C)C` [Compound 28] had a half-maximal effective concentration (EC50) not above 5 nM.
On the same count and under the same terms, the figure for `COC(=O)N[C@H](C(=O)N1C[C@@H](C)C[C@H]1c1ncc(-c2cc3sc(-c4ccc(-c5cc6[nH]c([C@@H]7C[C@H](C)CN7C(=O)[C@@H](NC(=O)OC)C(C)C)nc6s5)cc4)cc3s2)[nH]1)C(C)C` [Compound 29] is not above 5 nM.
On the same count and under the same terms, the figure for `COC(=O)N[C@H](C(=O)N1C[C@@H](C)C[C@H]1c1nc2sc(-c3ccc(-c4ccc(-c5cc6[nH]c([C@@H]7C[C@H](C)CN7C(=O)[C@@H](NC(=O)OC)C(C)C)nc6s5)s4)cc3)cc2[nH]1)C(C)C` [Compound 30] is not above 5 nM; for `COC(=O)N[C@H](C(=O)N1C[C@@H](C)C[C@H]1c1ncc(C#Cc2ccc(-c3cc4[nH]c([C@@H]5C[C@H](C)CN5C(=O)[C@@H](NC(=O)OC)C(C)C)nc4s3)s2)[nH]1)C(C)C` [Compound 31] it is not above 5 nM.

The same assay, now with this note: Hepatitis C virus; Table 2B; HCV genotype 1b replicon.
`COC(=O)N[C@H](C(=O)N1C[C@@H](C)C[C@H]1c1nc(-c2ccc(-c3ccc(-c4cc5[nH]c([C@@H]6C[C@H](C)CN6C(=O)[C@@H](NC(=O)OC)C(C)C)nc5s4)cc3C)cc2)c[nH]1)C(C)C` [Compound 8a] gave an EC50 not above 5 nM.
The compound `COC(=O)N[C@H](C(=O)N1C[C@@H](C)C[C@H]1c1ncc(-c2ccc(-c3ccc(-c4cc5[nH]c([C@@H]6C[C@H](C)CN6C(=O)[C@@H](NC(=O)OC)C(C)C)nc5s4)cc3)c(F)c2)[nH]1)C(C)C` [Compound 9a] gave an EC50 not above 5 nM.
Still for that read-out and setting: the same measure for `COC(=O)N[C@H](C(=O)N1C[C@@H](C)C[C@H]1c1ncc(-c2ccc(-c3ccc(-c4cc5[nH]c([C@@H]6C[C@H](C)CN6C(=O)[C@@H](NC(=O)OC)C(C)C)nc5s4)cc3)cc2F)[nH]1)C(C)C` [Compound 10a]: not above 5 nM; for `COC(=O)N[C@H](C(=O)N1C[C@@H](C)C[C@H]1c1ncc(-c2ccc(-c3ccc(-c4cc5[nH]c([C@@H]6C[C@H](C)CN6C(=O)[C@@H](NC(=O)OC)C(C)C)nc5s4)cc3)c(C)c2)[nH]1)C(C)C` [Compound 12a]: not above 5 nM.
